Measured values reported in paper PMC9596378, “Discovery and molecular basis of subtype-selective cyclophilin inhibitors” (Nature Chemical Biology, 2022).

How the values were obtained:
Test in all cases: Anisotropy (fluorescence polarization) binding assay
Cyp40 = Cyp40 (Homo sapiens, UniProt Q08752); set-up: PPID (UniProtKB Entry Q08752: residues 1–183); made in house; host or cells: E. coli BL21(DE3); conditions: 0.5 nM fluorescein-labeled macrocycle
Procedure: (§1) Final assay volume was 100 µL with 0.25% DMSO. Fluorescence anisotropy was then measured using a Tecan Spark plate reader using 492 nm/523 nm excitation/emission settings.

CypD = CypD (Homo sapiens, UniProt P30405); set-up: PPIF (UniProtKB Entry P30405: residues 45–207); made in house; host or cells: E. coli BL21(DE3); conditions: 0.5 nM fluorescein-labeled macrocycle
Procedure: as §1

PPIL3 = molecular target: T1, PPIL3 (Homo sapiens, UniProt Q9H2H8); conditions: 0.5 nM fluorescein-labeled macrocycle
T1 construct: PPIL3 (UniProtKB Entry Q9H2H8: residues 1–161); His6 tag with TEV site (2BT vector); SNA remnant stays on the N-terminus (N, cleaved yes); made in house; host or cells: E. coli BL21(DE3)
Procedure: as §1

PPIL6(C-Myc/DDK) = molecular target: T2, PPIL6(C-Myc/DDK) (Homo sapiens, UniProt Q8IXY8); conditions: 0.5 nM fluorescein-labeled macrocycle
T2 construct: Myc; DDK (FLAG); purchased Millipore-Sigma
Procedure: as §1

PPWD1 = molecular target: T3, PPWD1 (Homo sapiens, UniProt Q96BP3); conditions: 0.5 nM fluorescein-labeled macrocycle
T3 construct: PPWD1 (UniProtKB Entry Q96BP3: residues 473–646); host or cells: E. coli BL21(DE3)
T3 sequence (Q96BP3 473-646): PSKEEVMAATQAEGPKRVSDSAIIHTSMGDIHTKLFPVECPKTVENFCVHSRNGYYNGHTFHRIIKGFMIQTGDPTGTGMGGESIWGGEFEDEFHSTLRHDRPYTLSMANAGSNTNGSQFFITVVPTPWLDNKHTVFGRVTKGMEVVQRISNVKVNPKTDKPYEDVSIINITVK
Procedure: as §1

PPIL4(Full Length) = molecular target: T4, PPIL4(Full Length) (Homo sapiens, UniProt Q8WUA2); conditions: 0.5 nM fluorescein-labeled macrocycle
T4 construct: PPIL4 (full length); purchased Millipore-Sigma
Procedure: as §1

CypC = molecular target: T5, CypC (Homo sapiens, UniProt P45877); conditions: 0.5 nM fluorescein-labeled macrocycle
T5 construct: PPIC (UniProtKB Entry P45877: residues 24–212); host or cells: E. coli BL21(DE3)
Procedure: as §1

PPIL2 = molecular target: T6, PPIL2 (Homo sapiens, UniProt Q13356); conditions: 0.5 nM fluorescein-labeled macrocycle
T6 construct: PPIL2 (UniProtKB Entry Q13356: residues 280–457); His6 tag with thrombin site (pET28a LIC); GS remnant after cleavage (N, cleaved yes); host or cells: E. coli BL21(DE3)
Procedure: as §1

PPIL1 = molecular target: T7, PPIL1 (Homo sapiens, UniProt Q9Y3C6); conditions: 0.5 nM fluorescein-labeled macrocycle
T7 construct: PPIL1 (UniProtKB Entry Q9Y3C6: residues 1–166); made in house; host or cells: E. coli BL21(DE3)
T7 sequence (Q9Y3C6 1-166): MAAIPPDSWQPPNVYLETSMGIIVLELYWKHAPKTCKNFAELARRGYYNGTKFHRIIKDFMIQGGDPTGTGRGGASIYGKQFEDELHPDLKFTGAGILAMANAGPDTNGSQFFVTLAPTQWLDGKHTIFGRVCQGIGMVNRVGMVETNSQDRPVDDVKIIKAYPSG
Procedure: as §1

SDCCAG-10(GST) = molecular target: T8, SDCCAG-10(GST) (Homo sapiens, UniProt Q6UX04); conditions: 0.5 nM fluorescein-labeled macrocycle
T8 construct: GST; purchased Abnova
Procedure: as §1

CypH = molecular target: T9, CypH (Homo sapiens, UniProt O43447); conditions: 0.5 nM fluorescein-labeled macrocycle
T9 construct: PPIH (UniProtKB Entry O43447: residues 1–177); His6 with TEV site (2BT vector leader) (N); made in house; host or cells: E. coli BL21(DE3)
Procedure: as §1

CypE K217A = molecular target: T10, CypE K217A (Homo sapiens, UniProt Q9UNP9, K217A); conditions: 0.5 nM A26-Fl
T10 construct: Lane 5- GS-CypE K217A (131-301);; His6 tag with thrombin site (pET28a LIC); GS remnant stays on the N-terminus (N, cleaved yes); host or cells: E. coli BL21(DE3)
Procedure: as §1

CypE = molecular target: T11, CypE (Homo sapiens, UniProt Q9UNP9); conditions: 0.5 nM fluorescein-labeled macrocycle
T11 construct: PPIE (UniProtKB Entry Q9UNP9: residues 131–301); host or cells: E. coli BL21(DE3)
Procedure: as §1

CypB = molecular target: T12, CypB (Homo sapiens, UniProt P23284); conditions: 0.5 nM fluorescein-labeled macrocycle
T12 construct: PPIB (UniProtKB Entry P23284: residues 34–216); His6 with TEV site (2BT vector leader) (N); made in house; host or cells: E. coli BL21(DE3)
Procedure: as §1

CypE K212A = molecular target: T13, CypE K212A (Homo sapiens, UniProt Q9UNP9, K212A); conditions: 0.5 nM A26-Fl
T13 construct: Lane 4- GS-CypE K212A (131-301);; His6 tag with thrombin site (pET28a LIC); GS remnant stays on the N-terminus (N, cleaved yes); host or cells: E. coli BL21(DE3)
Procedure: as §1

CypA = molecular target: T14, CypA (Homo sapiens, UniProt P62937); conditions: 0.5 nM fluorescein-labeled macrocycle
T14 construct: PPIA (UniProtKB Entry P62937: residues 1–165); made in house; host or cells: E. coli BL21(DE3)
Procedure: as §1

CypE K218A = molecular target: T15, CypE K218A (Homo sapiens, UniProt Q9UNP9, K218A); conditions: 0.5 nM A26-Fl
T15 construct: Lane 6- GS-CypE K218A (131-301);; His6 tag with thrombin site (pET28a LIC); GS remnant stays on the N-terminus (N, cleaved yes); host or cells: E. coli BL21(DE3)
Procedure: as §1

NKTR = molecular target: T16, NKTR (Homo sapiens, UniProt P30414); conditions: 0.5 nM fluorescein-labeled macrocycle
T16 construct: NKTR (UniProtKB Entry P30414: residues 7–179); host or cells: E. coli BL21(DE3)
T16 sequence (P30414 7-179): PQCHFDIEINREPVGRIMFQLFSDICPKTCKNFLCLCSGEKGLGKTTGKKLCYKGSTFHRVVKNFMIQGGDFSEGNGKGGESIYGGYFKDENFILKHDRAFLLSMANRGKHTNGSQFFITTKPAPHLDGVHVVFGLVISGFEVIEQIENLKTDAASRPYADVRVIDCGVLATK
Procedure: as §1

CypG = molecular target: T17, CypG (Homo sapiens, UniProt Q13427); conditions: 0.5 nM fluorescein-labeled macrocycle
T17 construct: PPIG (UniProtKB Entry Q13427: residues 1–179); His6 with thrombin site (pET28a LIC leader) (N); host or cells: E. coli BL21(DE3)
T17 sequence (Q13427 1-179): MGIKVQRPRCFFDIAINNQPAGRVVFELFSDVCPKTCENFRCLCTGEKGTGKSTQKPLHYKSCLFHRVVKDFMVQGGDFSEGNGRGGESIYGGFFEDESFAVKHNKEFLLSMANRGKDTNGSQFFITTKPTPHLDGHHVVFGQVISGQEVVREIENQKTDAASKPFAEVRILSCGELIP
Procedure: as §1

T9 sequence (O43447 whole entry, the tested form may be a part): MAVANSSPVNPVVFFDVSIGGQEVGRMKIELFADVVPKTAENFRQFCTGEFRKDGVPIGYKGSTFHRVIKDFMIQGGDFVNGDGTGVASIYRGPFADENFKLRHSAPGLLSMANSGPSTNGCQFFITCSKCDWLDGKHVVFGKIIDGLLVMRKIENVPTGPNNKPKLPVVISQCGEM
T8 sequence (Q6UX04 whole entry): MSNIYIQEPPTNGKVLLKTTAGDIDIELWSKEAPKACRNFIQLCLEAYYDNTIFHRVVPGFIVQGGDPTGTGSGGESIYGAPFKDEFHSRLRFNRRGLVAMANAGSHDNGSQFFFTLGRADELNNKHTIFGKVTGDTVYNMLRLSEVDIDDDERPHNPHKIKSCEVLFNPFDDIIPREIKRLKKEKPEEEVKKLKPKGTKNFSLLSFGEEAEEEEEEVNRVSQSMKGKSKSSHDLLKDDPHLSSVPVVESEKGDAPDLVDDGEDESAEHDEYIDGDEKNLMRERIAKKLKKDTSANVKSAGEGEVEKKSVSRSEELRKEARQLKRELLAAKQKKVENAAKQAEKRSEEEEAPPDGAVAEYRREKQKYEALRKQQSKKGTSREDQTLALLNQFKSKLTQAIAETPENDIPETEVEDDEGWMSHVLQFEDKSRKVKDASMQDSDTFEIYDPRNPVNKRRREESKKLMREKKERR
T2 sequence (Q8IXY8 whole entry): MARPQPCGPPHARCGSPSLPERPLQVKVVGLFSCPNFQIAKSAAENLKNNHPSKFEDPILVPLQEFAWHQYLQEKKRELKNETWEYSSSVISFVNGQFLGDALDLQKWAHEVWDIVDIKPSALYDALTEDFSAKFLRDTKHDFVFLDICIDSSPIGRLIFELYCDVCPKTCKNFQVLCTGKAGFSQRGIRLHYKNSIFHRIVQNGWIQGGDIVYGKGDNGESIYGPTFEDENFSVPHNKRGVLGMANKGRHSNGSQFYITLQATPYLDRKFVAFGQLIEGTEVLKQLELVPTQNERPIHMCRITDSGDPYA
Chain of Cyp40 (Q08752 1-183): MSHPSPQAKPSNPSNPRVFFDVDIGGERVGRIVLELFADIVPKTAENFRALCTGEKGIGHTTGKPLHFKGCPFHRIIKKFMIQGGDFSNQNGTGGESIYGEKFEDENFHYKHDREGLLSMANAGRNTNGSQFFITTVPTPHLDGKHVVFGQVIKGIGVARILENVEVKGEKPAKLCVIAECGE
T14 sequence (P62937 whole entry, the tested form may be a part): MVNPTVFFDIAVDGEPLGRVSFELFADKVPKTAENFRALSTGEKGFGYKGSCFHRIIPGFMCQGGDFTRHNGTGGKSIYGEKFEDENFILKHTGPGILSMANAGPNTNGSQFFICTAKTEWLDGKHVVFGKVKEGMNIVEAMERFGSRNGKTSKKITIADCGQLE
T4 sequence (Q8WUA2 whole entry): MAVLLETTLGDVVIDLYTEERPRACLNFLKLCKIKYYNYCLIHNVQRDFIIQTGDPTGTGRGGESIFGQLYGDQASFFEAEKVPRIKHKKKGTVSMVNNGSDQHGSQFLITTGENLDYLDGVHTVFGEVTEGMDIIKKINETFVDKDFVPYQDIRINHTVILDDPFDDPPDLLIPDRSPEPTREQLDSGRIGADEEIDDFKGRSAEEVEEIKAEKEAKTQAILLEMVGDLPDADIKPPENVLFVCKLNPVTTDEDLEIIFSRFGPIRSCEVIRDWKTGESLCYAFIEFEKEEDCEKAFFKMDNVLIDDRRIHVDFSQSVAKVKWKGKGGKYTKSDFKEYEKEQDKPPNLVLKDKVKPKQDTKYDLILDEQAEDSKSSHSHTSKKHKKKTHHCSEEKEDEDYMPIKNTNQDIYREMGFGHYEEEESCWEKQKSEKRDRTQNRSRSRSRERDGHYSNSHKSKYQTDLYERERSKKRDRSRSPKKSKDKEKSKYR
T12 sequence (P23284 34-216): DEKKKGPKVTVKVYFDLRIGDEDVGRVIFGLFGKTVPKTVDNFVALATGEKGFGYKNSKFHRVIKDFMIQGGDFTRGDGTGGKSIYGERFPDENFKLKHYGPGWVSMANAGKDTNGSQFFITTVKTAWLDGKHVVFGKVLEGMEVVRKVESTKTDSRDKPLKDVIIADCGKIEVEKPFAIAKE
T10 sequence (Q9UNP9 131-301 K217A): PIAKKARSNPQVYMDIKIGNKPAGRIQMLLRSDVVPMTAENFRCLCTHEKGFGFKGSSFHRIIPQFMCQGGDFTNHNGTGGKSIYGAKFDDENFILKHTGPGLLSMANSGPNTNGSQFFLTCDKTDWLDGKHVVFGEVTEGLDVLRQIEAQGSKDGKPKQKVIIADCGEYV
T15 sequence (Q9UNP9 131-301 K218A): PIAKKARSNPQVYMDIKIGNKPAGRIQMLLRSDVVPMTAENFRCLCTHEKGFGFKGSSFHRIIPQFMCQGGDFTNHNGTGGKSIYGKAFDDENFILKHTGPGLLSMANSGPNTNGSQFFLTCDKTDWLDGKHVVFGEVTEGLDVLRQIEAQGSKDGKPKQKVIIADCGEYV
Chain of CypD (P30405 45-207): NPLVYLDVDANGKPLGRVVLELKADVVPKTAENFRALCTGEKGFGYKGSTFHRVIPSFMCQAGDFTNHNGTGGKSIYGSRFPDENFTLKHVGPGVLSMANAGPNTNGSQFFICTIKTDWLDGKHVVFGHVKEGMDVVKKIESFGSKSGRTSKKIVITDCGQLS
T13 sequence (Q9UNP9 131-301 K212A): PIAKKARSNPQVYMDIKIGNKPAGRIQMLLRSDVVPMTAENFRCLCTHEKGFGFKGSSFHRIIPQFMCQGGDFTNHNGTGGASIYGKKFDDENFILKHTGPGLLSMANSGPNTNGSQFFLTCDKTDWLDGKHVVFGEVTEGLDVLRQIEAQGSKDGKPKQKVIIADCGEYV
T1 sequence (Q9H2H8 whole entry, the tested form may be a part): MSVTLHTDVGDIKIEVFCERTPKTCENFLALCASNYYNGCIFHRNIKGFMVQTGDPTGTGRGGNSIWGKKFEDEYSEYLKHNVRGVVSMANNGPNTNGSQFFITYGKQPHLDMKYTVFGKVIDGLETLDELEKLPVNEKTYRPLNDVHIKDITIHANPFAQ
T6 sequence (Q13356 280-457): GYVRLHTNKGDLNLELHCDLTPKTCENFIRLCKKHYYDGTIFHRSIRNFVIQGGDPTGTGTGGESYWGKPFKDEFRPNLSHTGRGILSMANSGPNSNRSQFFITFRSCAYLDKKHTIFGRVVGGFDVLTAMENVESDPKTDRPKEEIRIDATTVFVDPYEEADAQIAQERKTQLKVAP
T5 sequence (P45877 24-212): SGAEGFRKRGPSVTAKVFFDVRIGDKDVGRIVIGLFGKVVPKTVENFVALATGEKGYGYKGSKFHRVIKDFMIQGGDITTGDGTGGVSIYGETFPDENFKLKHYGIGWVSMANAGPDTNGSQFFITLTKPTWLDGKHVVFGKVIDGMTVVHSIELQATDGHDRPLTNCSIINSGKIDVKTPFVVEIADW
T11 sequence (Q9UNP9 131-301): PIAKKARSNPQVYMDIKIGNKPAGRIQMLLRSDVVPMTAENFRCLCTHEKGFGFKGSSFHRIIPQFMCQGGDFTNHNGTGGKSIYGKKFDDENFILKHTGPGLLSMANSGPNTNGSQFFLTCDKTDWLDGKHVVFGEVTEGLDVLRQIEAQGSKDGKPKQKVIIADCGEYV

Kd (Cyp40): 170 ± 20 nM
Kd (CypD): 17 ± 2 nM
Kd (PPIL3): 1700 ± 600 nM
Kd (PPIL6(C-Myc/DDK)): > 1000 nM
Kd (PPWD1): 1100 ± 600 nM
Kd (PPIL4(Full Length)): > 1000 nM
Kd (CypC): 150 ± 30 nM
Kd (PPIL2): > 10000 nM
Kd (PPIL1): 230 ± 40 nM
Kd (SDCCAG-10(GST)): > 1000 nM
Kd (CypH): 600 ± 100 nM
Kd (CypE K217A): 70 ± 10 nM
Kd (CypE): 100 ± 30 nM
Kd (CypB): 34 ± 5 nM
Kd (CypE K212A): 130 ± 30 nM
Kd (CypA): 51 ± 0.7 nM
Kd (CypE K218A): 70 ± 20 nM
Kd (NKTR): 1500 ± 400 nM
Kd (CypG): 170 ± 10 nM
Structure (SMILES): O=C1/C=C/C(=O)N2CCC[C@](Cc3ccccc3)(C2)C(=O)N[C@@H](Cc2ccco2)C(=O)NCc2ccccc2CC(=O)N[C@H](C(=O)NCCCOCCOCCOCCCNC(=O)c2ccc3c(c2)C(=O)OC32c3ccc(O)cc3Oc3cc(O)ccc32)CCN1 [Compound A26-Fl]
